Data reported in patent publication US20220296600A1, “USE OF A COMPOSITION COMPRISING 3,6,7-TRIMETHYLLUMAZINE FOR PREVENTING, AMELIORATING OR TREATING MMP-9 ASSOCIATED CONDITIONS AND INFLAMMATION” (COMVITA LIMITED, priority 2019, published 2022).

Key:
recombinant MMP-9 enzyme [1] = target: T1, recombinant MMP-9 enzyme (Homo sapiens, UniProt P14780); assay: MMP-9 inhibitor screening assay (fluorometric); format: biochemical
T1 construct: purchased Abcam (Melbourne, Australia)
Protocol: The MMP-9 inhibitor screening assay (fluorometric) kits were purchased from Abcam (Melbourne, Australia). The fluorometric kit contains the recombinant MMP-9 enzyme, MMP inhibitor NNGH (N-isobutyl-N-[4-methoxyphenylsulfonyl]glycyl hydroxamic acid), MMP fluorogenic substrate solubilised in DMSO, the fluorometric assay buffer and 96-well clear microplate.
Inhibitory activity on MMP-9 was assessed using the commercial MMP-9 inhibitor screening assay kit. MMP-9 activity was expressed as a change in fluorescence intensity measured using SpectraMax iD3 multi-mode microplate reader (Molecular Devices, San Jose, USA).
The assay employs a FRET-tagged (fluorescence resonance energy transfer) substrate, which can be hydrolysed by MMP-9 at a specific site (Abcam, 2018). The cleavage of the FRET substrate releases the quenched fluorescent Mca (7- methoxycoumarin-4-yl)-acetyl group (Abcam, 2018). The kit employs a quenched fluorogenic substrate Mca-Pro-Leu-Gly-Leu-Dpa-Ala-Arg-NH2, where the Mca fluorescence is quenched by Dpa until cleavage by MMPs. The amount of fluorescent product yielded by MMP-9 can be detected fluorometrically and it is proportional to the enzyme activity. Fluorescence were measured at ex320 nm-em395 nm to minimise fluorescence interference from 3,6,7-trimethyllumazine at ex330 nm-em470 nm. Assays were performed on a 96-well clear microplate included in the kit with a final reaction volume of 100 µL. Before adding the substrate, MMP-9 enzymes were incubated with testing samples and inhibitor control for 60 min at 37° C. The fluorescent substrate was added into each well prior to the assay to initiate the reaction. The assay was allowed to run for 20 min and the temperature in the reaction chamber was set to 37° C.
Testing samples were prepared comprising 3,6,7-trimethyllumazine prepared as outlined above.
A positive control was included with only MMP-9 and the fluorescent substrate, used as a reference to calculate the percentage inhibition. A broad spectrum MMP inhibitor NNGH was included as the negative control. […]

[2] = Simulated gastrointestinal digestion (SGF then SIF), 3,6,7-trimethyllumazine retention by HPLC; format: in vitro ADME; conditions: from four Manuka honey samples; 2 h gastric plus 4 h intestinal digestion
Protocol: The simulated gastrointestinal digestion was carried out using a static model. The simulated gastric fluid (SGF) and the simulated intestinal fluid (SIF) were prepared in accordance with a global consensus protocol (Minekus et al 2014). The SGF has a pH 3 to mimic the fed-state of the stomach. When mixed with Manuka honey (or a honey solution), the final mixture contains 2000 U/mL of pepsin. The SIF has pH 7 to mimic the fed-state of the small intestine, containing 2 mg/mL of pancreatin (8 x USP, or based on a protease activity of 200 U/mL) and 20 mM of porcine bile extract before use.
In the simulated gastric digestion, 2 g of Manuka honey was incubated in 2 mL of SGF at 37° C. under 95 rpm shaking for a period of 2 h (triplicates). At selected time points (0, 30, 60 and 120 min), a predetermined volume (0.1 mL) of the mixture was withdrawn for 3,6,7-trimethyllumazine analysis. […]
The gastric and intestinal digesta for 3,6,7-trimethyllumazine analysis was treated to remove insoluble fractions (e.g. pancreatin) before HPLC analysis. […] The amount of 3,6,7-trimethyllumazine at different time points was analysed using a reverse-phase HPLC system, which has been previously used to analyse 3,6,7-trimethyllumazine and leptosperin as reported in the literature (Bin Lin et al 2017). […] The signal of 3,6,7-trimethyllumazine was detected at 320 nm.

[3] = test system: differentiated THP-1 cells; assay: Cell viability (WST-1); format: cell-based; conditions: 40 μg/mL
Protocol: To measure cytotoxicity of 3,6,7-trimethyllumazine at different doses, 2-(4-lodophenyl)-3-(4-nitrophenyl)-5-(2,4-disulfophenyl)-2H-tetrazolium, monosodium salt (WST-1) (Roche, 11644807001, Lot #45255800) was used. WST-1 is a cell proliferation reagent for measurement of cellular proliferation, viability, and cytotoxicity using a colorimetric assay (Gosert (2011); Peskin (2000)).
After incubation, a portion of the culture media was taken and stored for MMP-9 secretion testing using ELISA. The remaining media in the plates was then removed and 100 μl of WST-1 in RPMI-1640 media (1:10 dilution) was added to each cell well and incubated at 37° C. for a further 4 hours. The plates were then read using a plate reader at wavelength of 450 nm. Cytotoxicity was calculated as follows: • [WST-1 score for each sample/WST-1 score for the control]×100 • A WST-1 score below 80% will be considered cytotoxic.

[4] = test system: inactive MMP-9 (pro-MMP-9); assay: Gelatin gel zymography, inactive (pro-)MMP-9 band; format: biochemical; conditions: inactive MMP-9 band; supplemented developing buffer
Protocol: (§1) Novex™ 10% Zymogram Plus (Gelatin) Protein Gels (15 wells) were purchased from Thermo Fisher Scientific Inc. (Auckland, New Zealand). All chemicals required for the zymogram analysis were also purchased from Thermo Fisher, these include Novex™ Sharp Pre-stained Protein Standard, Novex Tris-Glycine SDS sample buffer, Novex Tris-Glycine SDS running buffer, Novex Zymogram renaturing buffer and Novex Zymogram developing buffer. […] Gelatin gel zymography was performed as an independent technique to confirm the inhibition of MMP-9 from 3,6,7-trimethyllumazine. This technique uses a non-reducing SDS-PAGE (sodium dodecyl sulfate polyacrylamide gel electrophoresis) gel embedded with gelatin. Proteins are migrated and separated during electrophoresis. The SDS is removed after electrophoresis and the gel is then incubated with essential cofactors required for enzymatic activity. The embedded gelatin can be digested by MMP-9, resulting in clear bands on a dark blue background after staining with Coomassie blue dyes. The gelatinase activity is represented by band densitometry, which can be assessed with image analysis software. […]
(§2) After incubation, the gelatin gel was rinsed with water for three times (5 min each) under gentle agitation. […] MMP-9 activities were analysed using densitometry on ImageJ Version 1.52a.

[5] = test system: MMP-9 secretion in differentiated THP-1 cells; assay: LPS induced MMP-9 secretion in differentiated THP-1 cells (ELISA); format: cell-based, human; conditions: LPS 1 μg/mL; for reduction of MMP-9 secretion: 24 hours
Protocol: THP-1 cells (ATCC, ATCTIB202) were grown in RPMI-1640 (Gibco, 11875093)+0.05 mM 2-mercaptoethanol+10% fetal calf serum (FCS)+1% pen-strep. For experiments, the cells were cultured in RPMI-1640 medium with 10% fetal bovine serum (FBS) only.
THP-1 monocyte cells were seeded at a density of 2.5×10^5 cells/ml in 96-well plates and differentiated into macrophages using 10 ng/ml of phorbol 12-myristate 13-acetate (PMA) (Bergin et al) (Sigma, P1585-1MG, Lot #SLBX889, 100% purity) for 72 hours. PMA media was then removed from the differentiated THP-1 cells, the cells were then washed once in RPMI-1640 media and then left to rest for ˜5 hours.
The differentiated THP-1 cells were stimulated with LPS from E. coli […] (Sigma, L6529; Lot#037K4068). LPS tested at a concentration of 1 μg/ml (Kong et al). The cells were incubated with LPS alone or in combination with 3,6,7-trimethyllumazine (received from University of Auckland and diluted in RPMI-1640 at a stock concentration of 1 mg/ml, stock was stored in fridge for 2 days before use) at a concentration range between 2.5-40 μg/ml. 6 μM Azithromycin (Sigma, Cat #75199-25MG, Lot#069M4826V) was used as a positive control (Vandooren et al). The cells were then incubated with the different treatments for 24 hours (Kong et al). After 24 hours, the cell culture media was collected and measured for MMP-9 concentration using MMP-9 ELISA (R&D systems, RDSDY91105 lot #P239459 and DY008 Lot #P239900). The cells were then incubated with WST-1 for cell viability.
This human MMP-9 assay measures the 92 kDa Pro-MMP-9 and the 82 kDa active MMP-9. […] This assay also recognizes human MMP-9 when complexed to Lipocalin-2/NGAL, isolated from human source material.
In order to better capture the variability, each treatment was done at least in triplicate in each plate (2 plates). Media from the triplicate wells were pooled and analysed in duplicates for the MMP-9 ELISA. A student's test was performed in excel between media with LPS and the different treatments.

active MMP-9 = assay: Gelatin gel zymography, active MMP-9 band; format: biochemical; conditions: active MMP-9 band (~37 kDa); supplemented developing buffer
Protocol: as §1, §2

recombinant MMP-9 enzyme [6] = target: T1, recombinant MMP-9 enzyme; assay: MMP-9 inhibitor screening assay (colorimetric); format: biochemical; conditions: read-out: percentage inhibition of MMP-9
Source text: The MMP-9 inhibitor screening assay (colorimetric) kits were purchased from Abcam (Melbourne, Australia). The kit contains the recombinant MMP-9 enzyme, MMP inhibitor NNGH, MMP chromogenic substrate, the colorimetric assay buffer and 96-well clear microplate.
The colorimetric kit uses a thiopeptide as a chromogenic substrate (Ac-PLG- [2-mercapto-4-methyl-pentanoyl]-LG-[…]), which can be hydrolysed by MMPs to produce a sulfhydryl group. This intermediate product further reacts with DTNB [5,5′-dithiobis(2-nitrobenzoic acid), Ellman's reagent] to form 2-nitro-5-thiobenzoic acid, which can be detected by absorbance at 412 nm. The change in absorbance was measured using the SpectraMax iD3 multi-mode microplate reader (Molecular Devices, San Jose, USA). The assays are performed on a convenient 96-wells microplate with a final reaction volume of 100 μL. Prior to the assay, all testing samples and inhibitor controls were incubated with MMP-9 for 60 min at 37° C. […] The absorbance was measured at 1 min intervals during the first 20 min, then 10 min intervals till the end of assay.
Recombinant MMP-9 and the chromogenic substrate were used as the positive control to represent 100% enzyme activity. […] A range of 3,6,7-trimethyllumazine concentrations were diluted with the colorimetric assay buffer to measure the absorbance of the reaction product.

T1 sequence (P14780 94-707): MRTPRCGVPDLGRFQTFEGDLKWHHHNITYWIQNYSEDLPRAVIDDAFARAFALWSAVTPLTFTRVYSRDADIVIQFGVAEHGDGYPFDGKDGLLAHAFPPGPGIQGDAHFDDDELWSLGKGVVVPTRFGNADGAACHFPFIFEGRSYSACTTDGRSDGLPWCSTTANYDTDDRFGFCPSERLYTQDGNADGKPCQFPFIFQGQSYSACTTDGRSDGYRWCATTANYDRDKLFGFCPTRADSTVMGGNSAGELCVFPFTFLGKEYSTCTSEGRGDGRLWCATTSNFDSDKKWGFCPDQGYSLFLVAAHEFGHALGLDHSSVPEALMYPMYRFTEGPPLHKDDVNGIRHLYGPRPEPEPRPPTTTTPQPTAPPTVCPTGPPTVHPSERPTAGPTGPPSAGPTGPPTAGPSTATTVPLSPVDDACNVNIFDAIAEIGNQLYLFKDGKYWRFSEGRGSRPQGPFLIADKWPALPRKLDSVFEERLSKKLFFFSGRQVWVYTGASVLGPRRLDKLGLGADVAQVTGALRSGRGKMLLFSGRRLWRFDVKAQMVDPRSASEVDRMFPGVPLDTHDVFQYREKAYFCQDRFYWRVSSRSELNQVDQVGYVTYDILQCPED

In the case of Cc1nc2[nH]c(=O)n(C)c(=O)c2nc1C [3,6,7-trimethyllumazine], the inhibition at 2.5 µg/mL (recombinant MMP-9 enzyme [1]; 2.5 μg/ml, not significant (p>0.05), read-out: percentage inhibition of MMP-9 activity) is reported as 12%, the IC50 (recombinant MMP-9 enzyme [1]; fluorometric, second-order polynomial fit of % inhibition vs concentration) is reported as 55.8 µM and the “initial 3,6,7-trimethyllumazine amount recovered in the digesta” value [2] is reported as ~100%. The “WST-1 score (cell viability; below 80% considered cytotoxic)” value [3] was 79.8%, the “percentage inhibition of gelatinase activity (densitometry)” value [4] was 17% and the “reduction of MMP-9 secretion” value ([5]; 30 μg/mL) was 23%. For the same compound, the “reduction of MMP-9 secretion” value ([5]; 40 μg/mL) was 38%, the “percentage inhibition of gelatinase activity (densitometry)” value (active MMP-9) was 31% and the inhibition at 40 µg/mL (recombinant MMP-9 enzyme [6]; 40 μg/ml) was 10%. The inhibition at 80 µg/mL (recombinant MMP-9 enzyme [6]; 80 μg/ml) was 10%.

In the case of CC[C@H]1OC(=O)[C@H](C)[C@@H](O[C@H]2C[C@@](C)(OC)[C@@H](O)[C@H](C)O2)[C@H](C)[C@@H](O[C@@H]2O[C@H](C)C[C@H](N(C)C)[C@H]2O)[C@](C)(O)C[C@@H](C)CN(C)[C@H](C)[C@@H](O)[C@]1(C)O [Azithromycin, reference compound], the “effect on MMP-9 secretion” value ([5]; 6 μM positive control, absolute values, P=0.00) is reported as “inhibits mmp-9 secretion”.

With COc1ccc(S(=O)(=O)N(CC(=O)NO)CC(C)C)cc1 [NNGH, N-isobutyl-N-[4-methoxyphenylsulfonyl]glycyl hydroxamic acid, reference compound] the “change in fluorescence intensity (MMP-9 activity)” value (recombinant MMP-9 enzyme [1]; NNGH inhibitor control) was “almost no change in fluorescence”.
